Experimental data taken from patent US20230381121A1, “N-PALMITOYLETHANOLAMIDE AND MELATONIN FOR USE IN THE TREATMENT OF AUTISM SPECTRUM DISORDER AND OTHER NEUROBEHAVIORAL DISORDERS SIMILARLY ACCOMPANIED BY RESTLESSNESS, IRRITABILITY, SLEEP DISORDERS, AND POTENTIALLY STEREOTYPIES” (priority 2022, published 2023).
Entries after “also recorded” stand apart in the source; their conditions may differ.

Columns and labels:
[1] = tested on: mice in which an autistic phenotype was induced by valproic acid (VPA); assay: Thermal Nociception test (hot plate) in VPA mice; assay type: in vivo, C57/BL6 mice; conditions: melatonin at 1 mg/kg per os daily for 14 days, the worsening is significant, FIG. 6
Experimental: (§1) To evaluate the synergy of a combination PEA-um and melatonin, experimental tests were carried out by oral administration (gastric tube) of a mixture of um-PEA and melatonin (approximately 10:1 ratio) at a dose of 10 mg/kg for two weeks in mice in which an autistic phenotype was induced by a single injection of valproic acid in the form of sodium valproate (VPA).
(§2) Healthy male C57/BL6 mice fed ad libitum and housed in cages with controlled sleep/wake cycles were used in the first experimentation. […]
(§3) The animals underwent the following behavioral tests: • The social interaction test, also known as a 3-chamber social test (FIGS. 2A, 2B and FIGS. 15A, 15B) to evaluate i) the interaction time of the animals with an unknown mouse and ii) the sociability index (ratio between the time spent by the mouse exploring the area without and with the new companion). […] In this phase of the test, parameters such as the time spent by the animal exploring i) the chambers and ii) the unfamiliar mouse were detected. • The Novel Object Recognition Test or NOR test (FIGS. 3A, 3B) to examine cognition and recognition memory by calculating the time spent by the animal exploring new objects with respect to familiar ones. […]

[2] = tested on: mice in which an autistic phenotype was induced by valproic acid (VPA); assay: VPA injection model of autism: overall activity in the study; assay type: in vivo, C57/BL6 mice
Experimental: as §1, §2, §3

BTBR T+tf/J (BTBR) mice [3] = assay: Social interaction test and 3-chamber social interaction test in BTBR mice; assay type: in vivo; conditions: melatonin 0.1 mg/kg orally for 10 days
Experimental: (§4) Furthermore, experimental tests were carried out to determine the synergy of the PEA-Melatonin-DHA combination administered orally to genetically modified BTBR T+tf/J (BTBR) mice, an animal model of neurobehavioral disorders of the ASD type.
(§5) To determine the synergy of a PEA-um, melatonin and DHA combination, a second experimentation was performed, using a different animal model useful for the study of neurobehavioral disorders, and more precisely BTBR mice. […]
(§6) The animals underwent the following behavioral tests: • The social interaction test, also known as a 3-chamber social test (FIGS. 2A, 2B and FIGS. 15A, 15B) to evaluate i) the interaction time of the animals with an unknown mouse and ii) the sociability index (ratio between the time spent by the mouse exploring the area without and with the new companion). […] In this phase of the test, parameters such as the time spent by the animal exploring i) the chambers and ii) the unfamiliar mouse were detected. • The Novel Object Recognition Test or NOR test (FIGS. 3A, 3B) to examine cognition and recognition memory by calculating the time spent by the animal exploring new objects with respect to familiar ones. […] The exploration time was counted from the moment the mice directly looked at and smelled the object at a distance of less than 2 cm. […]

BTBR T+tf/J (BTBR) mice [4] = assay: Marble Burying test in BTBR mice; assay type: in vivo; conditions: melatonin 0.1 mg/kg orally for 10 days, FIG. 15C
Experimental: as §4, §5, §6

BTBR T+tf/J (BTBR) mice [5] = assay: Self Grooming test in BTBR mice; assay type: in vivo; conditions: melatonin 0.1 mg/kg orally for 10 days, FIG. 15D
Experimental: as §4, §5, §6

[6] = tested on: mice with a simil-autistic phenotype; conditions: cited from earlier work
autistic children = conditions: um-PEA 600 mg/day, 3-month treatment; cited from earlier work

| SMILES | VPA-induced pain insensitivity (hot plate) [1] | activity in the assessments of the VPA study (social interaction, sociability index, NOR, stereotypies, EPM) ([2]; melatonin at 1 mg/kg per os daily for 14 days, 1 mg/kg) | activity in the present study (VPA model) ([2]; melatonin at a dose of 10 mg/kg per os daily for 14 days) | social interaction behavioral test (BTBR T+tf/J (BTBR) mice [3]; FIG. 15A) | 3-chamber social interaction test: side of the area where time is spent (BTBR T+tf/J (BTBR) mice [3]; FIG. 15B) | stereotyped repetitive behaviors (Marble Burying) (BTBR T+tf/J (BTBR) mice [4]) | stereotyped repetitive behaviors (Self Grooming) (BTBR T+tf/J (BTBR) mice [5]) | altered behavioral status [6] | expression of the pro-inflammatory hippocampal and serum cytokines IL-6, IL-1β and TNF-α [6] | adverse effects (autistic children) | aggressiveness, cognitive and behavioral skills, and communication (autistic children) |
| --- | --- | --- | --- | --- | --- | --- | --- | --- | --- | --- | --- |
| COc1ccc2[nH]cc(CCNC(C)=O)c2c1 [melatonin, N-acetyl-5-methoxy tryptamine] | worsened | inactive; also recorded: never shown to be active | active | no improvement | continuing to spend their time in the empty side | no improvement | no improvement |  |  |  |  |
| CCCCCCCCCCCCCCCC(=O)NCCO [um-PEA, Ultra-micronized palmitoylethanolamide] |  |  |  |  |  |  |  | modulating | reducing | without adverse effects | improves |
